Measured values as given in US20180148418A1, “AMIDO-SUBSTITUTED CYCLOHEXANE DERIVATIVES” (Bayer Pharma Aktiengesellschaft, priority 2015, published 2018).
pIC50: −log10 of the molar value.

Legend:
[1] = test system: HEK293 cells cotransfected with the FOP control vector; experiment: HEK293 FOP assay (control reporter with non-functional TCF elements); assay type: cell-based; settings: Homo sapiens, 16 hours
Procedure, shortened: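 Compound series from 50 μM down to 15 nM, prediluted in DMSO then 50-fold into CAFTY buffer (pH 7.4, 2 mM Ca2+, 0.01% BSA), tested alongside TOP cells on a Geneticin-selected HEK293 FOP line whose TCF elements are replaced by a random sequence; recombinant human Wnt-3a applied at 2500-5 ng/ml.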

TNKS2 = target: T1, TNKS2 (Homo sapiens, UniProt Q9H2K2); experiment: TNKS2 Assay B (auto-parsylation, [3H]-NAD+ SPA); assay type: biochemical; settings: 6 nM TNKS2, auto-parsylation, over night at room temperature
T1 construct: purchased BPS Bioscience, San Diego, USA 80572 (TNKS2 Histone Ribosylation Assay Kit)
T1 sequence (Q9H2K2 1-1166): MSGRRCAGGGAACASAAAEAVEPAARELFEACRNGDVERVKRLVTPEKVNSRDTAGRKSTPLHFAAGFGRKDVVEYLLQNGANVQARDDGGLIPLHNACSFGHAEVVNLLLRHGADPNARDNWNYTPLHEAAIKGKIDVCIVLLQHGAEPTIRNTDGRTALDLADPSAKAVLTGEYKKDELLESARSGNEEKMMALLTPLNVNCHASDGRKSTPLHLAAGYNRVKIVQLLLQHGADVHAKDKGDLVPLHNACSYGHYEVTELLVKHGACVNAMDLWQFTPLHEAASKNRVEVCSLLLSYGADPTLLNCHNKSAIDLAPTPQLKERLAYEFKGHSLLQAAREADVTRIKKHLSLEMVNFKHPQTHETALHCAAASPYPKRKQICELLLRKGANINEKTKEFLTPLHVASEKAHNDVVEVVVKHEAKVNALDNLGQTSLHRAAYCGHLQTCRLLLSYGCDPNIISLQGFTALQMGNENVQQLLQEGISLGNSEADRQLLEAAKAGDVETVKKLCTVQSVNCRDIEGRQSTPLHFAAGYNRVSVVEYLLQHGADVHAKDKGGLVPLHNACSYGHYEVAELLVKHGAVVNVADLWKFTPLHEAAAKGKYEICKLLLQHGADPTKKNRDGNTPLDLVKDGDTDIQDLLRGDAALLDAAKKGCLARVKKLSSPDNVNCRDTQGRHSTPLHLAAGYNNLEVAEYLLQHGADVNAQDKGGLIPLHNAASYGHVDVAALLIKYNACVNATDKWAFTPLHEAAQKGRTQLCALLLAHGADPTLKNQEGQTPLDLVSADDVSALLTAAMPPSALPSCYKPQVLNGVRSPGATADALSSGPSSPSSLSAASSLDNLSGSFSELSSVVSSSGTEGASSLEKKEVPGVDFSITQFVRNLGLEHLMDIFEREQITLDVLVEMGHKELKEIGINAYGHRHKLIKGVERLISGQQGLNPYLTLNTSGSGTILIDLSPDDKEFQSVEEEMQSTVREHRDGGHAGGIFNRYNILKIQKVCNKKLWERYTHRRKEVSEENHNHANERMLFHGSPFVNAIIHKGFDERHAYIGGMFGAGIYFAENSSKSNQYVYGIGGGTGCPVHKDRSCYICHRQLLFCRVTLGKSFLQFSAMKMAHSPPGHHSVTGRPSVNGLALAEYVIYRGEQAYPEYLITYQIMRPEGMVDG

| pIC50 (TNKS2) | Structure (SMILES) | pIC50 [1] |
| --- | --- | --- |
| 7.96 | O=C(NCCN1CC2(CCO2)C1)c1nc[nH]c1C(=O)N[C@H]1CC[C@H](C(=O)Nc2ccc(F)cc2Cl)CC1 [Example 25, N^5-{trans-4-[(2-chloro-4-fluorophenyl)carbamoyl]cyclohexyl}-N^4-[2-(1-oxa-6-azaspiro[3.3]hept-6-yl)ethyl]-1H-imidazole-4,5-dicarboxamide] | ≤ 4.30 |
| 6.92 | COC(=O)c1cc(C)nc2c(C(=O)N[C@H]3CC[C@H](C(=O)Nc4ccc(F)cc4Cl)CC3)cnn12 [Example 352, methyl 3-({trans-4-[(2-chloro-4-fluorophenyl)carbamoyl]cyclohexyl}carbamoyl)-5-methylpyrazolo[1,5-a]pyrimidine-7-carboxylate] | ≤ 4.30 |
| 7.11 | CC(C)OCCNC(=O)c1nc[nH]c1C(=O)N[C@H]1CC[C@H](C(=O)Nc2ccc(F)cc2Cl)CC1 [Example 76, N^5-{trans-4-[(2-chloro-4-fluorophenyl)carbamoyl]cyclohexyl}-N^4-(2-isopropoxyethyl)-1H-imidazole-4,5-dicarboxamide] | ≤ 4.30 |
| 5.15 | CNC(=O)c1nc[nH]c1C(=O)N[C@H]1CC[C@H](C(=O)Nc2cc(N3CCOCC3)ccc2Cl)CC1 [Example 88, N^5-(trans-4-{[2-chloro-5-(morpholin-4-yl)phenyl]carbamoyl}cyclohexyl)-N^4-methyl-1H-imidazole-4,5-dicarboxamide] | ≤ 4.30 |
| 5.70 | Cc1cc(C2CC2)nc2c(C(=O)N[C@H]3CC[C@H](C(=O)Nc4ccc(F)cc4Cl)CC3)cnn12 [Example 62, N-{trans-4-[(2-chloro-4-fluorophenyl)carbamoyl]cyclohexyl}-5-cyclopropyl-7-methylpyrazolo[1,5-a]pyrimidine-3-carboxamide] | ≤ 4.30 |
| 6.92 | Cc1cc(C)n2ncc(C(=O)NC3CCC(C(=O)Nc4ccc(F)cc4Cl)CC3C)c2n1 (stereo not drawn) [Example 42, N-{4-[(2-chloro-4-fluorophenyl)carbamoyl]-2-methylcyclohexyl}-5,7-dimethylpyrazolo[1,5-a]pyrimidine-3-carboxamide] | ≤ 4.30 |
| 7.14 | COC(C)CNC(=O)c1nc[nH]c1C(=O)N[C@H]1CC[C@H](C(=O)Nc2ccc(F)cc2Cl)CC1 (stereo partly drawn) [Example 81, N^5-{trans-4-[(2-chloro-4-fluorophenyl)carbamoyl]cyclohexyl}-N^4-(2-methoxypropyl)-1H-imidazole-4,5-dicarboxamide] | 5.17 |
| 6.77 | COc1ccc2ncc(C(=O)N[C@H]3CC[C@H](C(=O)Nc4ccc(F)cc4Cl)CC3)n2n1 [Example 50, N-{trans-4-[(2-chloro-4-fluorophenyl)carbamoyl]cyclohexyl}-6-methoxyimidazo[1,2-b]pyridazine-3-carboxamide] | ≤ 4.30 |
| < 5.00 | Cc1c(C(C)(C)O)cnc2c(C(=O)N[C@H]3CC[C@H](C(=O)Nc4ccc(F)cc4Cl)CC3)cnn12 [Example 359, N-{trans-4-[(2-chloro-4-fluorophenyl)carbamoyl]cyclohexyl}-6-(2-hydroxypropan-2-yl)-7-methylpyrazolo[1,5-a]pyrimidine-3-carboxamide] | ≤ 4.30 |
| 7.14 | O=C(NCCC1CC1)c1nc[nH]c1C(=O)N[C@H]1CC[C@H](C(=O)Nc2ccc(F)cc2Cl)CC1 [Example 74, N^5-{trans-4-[(2-chloro-4-fluorophenyl)carbamoyl]cyclohexyl}-N^4-(2-cyclopropylethyl)-1H-imidazole-4,5-dicarboxamide] | 4.49 |
| 7.77 | COC1CN(C(=O)c2nc[nH]c2C(=O)N[C@H]2CC[C@H](C(=O)Nc3ccc(F)cc3Cl)CC2)C1 [Example 24, 4 N-{trans-4-[(2-chloro-4-fluorophenyl)carbamoyl]cyclohexyl}-4-[(3-methoxyazetidin-1-yl)carbonyl]-1H-imidazole-5-carboxamide] | ≤ 4.30 |
| 7.12 | O=C(NC[C@H]1CCCO1)c1nc[nH]c1C(=O)N[C@H]1CC[C@H](C(=O)Nc2c(F)cc(F)cc2Cl)CC1 [Example 70, N^5-{trans-4-[(2-chloro-4,6-difluorophenyl)carbamoyl]cyclohexyl}-N^4-[(2R)-tetrahydrofuran-2-ylmethyl]-1H-imidazole-4,5-dicarboxamide] | 4.54 |
